In patent US12584113B2, “Method of cell culture” (Pfizer Inc., priority 2014, dated 2026):

Tested on: GS-CHO cells
Assay: Spike-in of single purified metabolites into Medium A, growth of GS-CHO cells monitored 5 or 6 days
Assay type: cell-based, Chinese hamster
Description: GS-CHO cells producing a recombinant antibody were inoculated at low viable cell densities (0.1E6 cells/mL) in various conditions in 5 ml volume, 6-well plate cultures. […] The pH of the Medium A, spiked-in with any one of the nine metabolites or any combination of the nine metabolites, was adjusted to 7 before inoculating the cells (on day 0).
For indolelactate, the stock solution (500 mM) was prepared in DMSO. […] All the conditions were run in duplicates or triplicates. Growth of the cells in above described conditions was monitored for 5 or 6 days.

[1] = metabolite alone at concentrations higher than 0.5 mM or 1 mM

CCC(O)C(=O)O (stereo not shown) [2-hydroxybutyric acid]
effect on growth of cells [1]: Modest inhibition of growth

O=C(O)C(O)Cc1ccc(O)cc1 (stereo not shown) [3-(4-hydroxyphenyl)lactate]
effect on growth of cells [1]: Modest inhibition of growth

O=CO [Formate]
effect on growth of cells (metabolite alone at concentrations 2 mM and beyond): negative effect on growth

N[C@@H](CCS)C(=O)O [Homocysteine]
effect on growth of cells [1]: Modest inhibition of growth

O=C(O)c1c[nH]c2ccccc12 [Indolecarboxylic acid]
effect on growth of cells (metabolite alone at concentrations of 1 mM or lower): potent negative effect on growth of cells

O=C(O)C(O)Cc1c[nH]c2ccccc12 (stereo not shown) [Indolelactate]
effect on growth of cells (metabolite alone at concentrations of 3 mM or below, DMSO control included): little or no effect on growth of cells

Phenyllactate [Phenyllactate (PLA)]
effect on growth of cells (metabolite alone at 1 mM concentration): mild effect on growth of cells
